The values that follow come from US9084424B2, “N-benzyl heterocyclic carboxamides” (BAYER INTELLECTUAL PROPERTY GMBH, priority 2010, dated 2015).

Data set [1] is described as follows: log P by HPLC on reversed-phase column (EEC Directive 79/831 Annex V.A8). In kind it is physicochemical. The note with it: 0.1% aqueous formic acid and acetonitrile, linear gradient 10% to 90% acetonitrile. How it is done: In table 1, the log P values were determined in accordance with EEC Directive 79/831 Annex V.A8 by HPLC (High Performance Liquid Chromatography) on a reversed-phase column (C 18), using the method described below: Temperature: 40° C.; Mobile phases: 0.1% aqueous formic acid and acetonitrile; linear gradient from 10% acetonitrile to 90% acetonitrile. Calibration was carried out using unbranched alkan-2-ones (comprising 3 to 16 carbon atoms) with known log P values (determination of the log P values by the retention times using linear interpolation between two successive alkanones). lambda-max-values were determined using UV-spectra from 200 nm to 400 nm and the peak values of the chromatographic signals.

The subject of the next data set is Sphaerotheca fuliginea. Description: In vivo preventive test on Sphaerotheca fuliginea (cucumber). The note with it: preventive spray, 500 ppm of active ingredient, evaluated 7 days after inoculation. On the procedure:
In Vivo Preventive Test on Sphaerotheca fuliginea (Cucumber)
(§1) Solvent: 49 parts by weight of N,N-dimethylformamide
(§2) Emulsifier: 1 part by weight of alkylarylpolyglycolether
(§3) To produce a suitable preparation of active compound, 1 part by weight of active compound is mixed with the stated amounts of solvent and emulsifier, and the concentrate is diluted with water to the desired concentration.
To test for preventive activity, young plants are sprayed with the preparation of active compound at the stated rate of application. After the spray coating has dried on, the plants are inoculated with an aqueous spore suspension of Sphaerotheca fuliginea. The plants are then placed in a greenhouse at approximately 23° C. and a relative atmospheric humidity of approximately 70%.
The test is evaluated 7 days after the inoculation. 0% means an efficacy which corresponds to that of the untreated control, while an efficacy of 100% means that no disease is observed.

For the next data set, the system named is Alternaria solani. Kind of data set: In vivo preventive test on Alternaria solani (tomato). The note with it: preventive spray, 500 ppm of active ingredient, evaluated 7 days after inoculation. On the procedure:
In Vivo Preventive Test on Alternaria Solani (Tomato)
as §1, §2, §3
To test for preventive activity, young plants are sprayed with the preparation of active compound at the stated rate of application. One day after this treatment, the plants are inoculated with an aqueous spore suspension of Alternaria solani. The plants remain for one day in an incubation cabinet at approximately 22° C. and a relative atmospheric humidity of 100%. Then the plants are placed in an incubation cabinet at approximately 20° C. and a relative atmospheric humidity of 96%.
The test is evaluated 7 days after the inoculation. 0% means an efficacy which corresponds to that of the untreated control while an efficacy of 100% means that no disease is observed.

Another data set has as its system Pyrenophora teres. Description: In vivo preventive test on Pyrenophora teres (barley). The note with it: preventive spray, 500 ppm of active ingredient, evaluated 7-9 days after inoculation. How it is done:
In Vivo Preventive Test on Pyrenophora teres (Barley)
Solvent: 49 parts by weight of N,N-dimethylacetamid
Emulsifier: 1 part by weight of alkylaryl polyglycol ether
as §3
To test for preventive activity, young plants are sprayed with the preparation of active compound at the stated rate of application. One day after this treatment, the plants are inoculated with an aqueous spore suspension of Pyrenophora teres. The plants remain for 48 hours in an incubation cabinet at 22° C. and a relative atmospheric humidity of 100%. Then the plants are placed in a greenhouse at a temperature of approximately 20° C. and a relative atmospheric humidity of approximately 80%.
The test is evaluated 7-9 days after the inoculation. 0% means an efficacy which corresponds to that of the untreated control while an efficacy of 100% means that no disease is observed.

[2] abbreviates: HPLC, reversed-phase C 18, 40° C.
[3] abbreviates: HPLC on reversed-phase column (C 18), 40° C.

The structures appear in SMILES notation.

By logP is commonly meant a log measure of how a compound divides between an organic and an aqueous phase. The low end stands for a more hydrophilic compound, the high end for a more lipophilic compound.

Consider `Cn1nc(C(F)F)c(C(=O)NC(c2ccccc2Cl)C(F)(F)F)c1Cl` (racemic) [Example 19], for which the logP in data set [1] (setting [2]) is given as 3.33. In addition, the Efficacy worked out at 84% in the data set on Sphaerotheca fuliginea and 90% with Alternaria solani.

Compound `CC(NC(=O)c1c(C(F)F)nn(C)c1Cl)c1ccccc1Cl` (racemic) [Example 20] gave a lipophilicity (logP) in data set [1] (setting [2]) of 2.92. The Efficacy was 94% with Sphaerotheca fuliginea, 95% in the data set on Alternaria solani and 95% in the data set on Pyrenophora teres.

`CC(NC(=O)c1c(C(F)F)nn(C)c1F)c1ccccc1Cl` (racemic) [Example 24] came in with a logP in data set [1] (setting [2]) of 2.75. Also, the Efficacy in the data set with Sphaerotheca fuliginea is 89%; in the data set on Alternaria solani, 94%; with Pyrenophora teres it was 100%.

The compound `CC(c1ccccc1Cl)N(C)C(=O)c1c(C(F)F)nn(C)c1F` (racemic) [Example 28] yielded a logP in data set [1] (setting [2]) of 2.68. For the same compound, the Efficacy in the data set on Sphaerotheca fuliginea came out at 85%; in the data set with Pyrenophora teres, 100%.

In data set [1] (setting [3]), `CC(NC(=O)c1c(C(F)F)nn(C)c1F)c1ccc(OCc2ccccc2)cc1` (racemic) [Example 162] returned a logP of 3.41. Further, the Efficacy with Sphaerotheca fuliginea is recorded as 88%; with Alternaria solani, 100%; in the data set with Pyrenophora teres, 100%.

The compound `CC(NC(=O)c1c(C(F)F)nn(C)c1F)c1ccc(-c2ccccc2)cc1` (racemic) [Example 169] had a logP in data set [1] (setting [3]) of 3.46. Besides, the Efficacy in the data set with Sphaerotheca fuliginea was 89%; with Alternaria solani, 94%; in the data set with Pyrenophora teres, 100%.

The compound `CC(NC(=O)c1c(C(F)F)nn(C)c1F)c1ncc(C(F)(F)F)cc1Cl` (racemic) [Example 175] had a logP in data set [1] (setting [3]) of 3.19. Besides, the Efficacy with Sphaerotheca fuliginea stood at 95%; in the data set on Alternaria solani, 95%; with Pyrenophora teres, 100%.

Take `CC(NC(=O)c1c(C(F)F)nn(C)c1Cl)c1ncc(C(F)(F)F)cc1Cl` (racemic) [Example 177]: in data set [1] (setting [3]), the logP is 3.48. Moreover, the Efficacy in the data set with Sphaerotheca fuliginea was 93%; with Alternaria solani, 90%; with Pyrenophora teres it was 100%.

As for `C=CCN(Cc1ccccc1CC)C(=O)c1c(C(F)F)nn(C)c1F` [Example 16], the logP in data set [1] (setting [2]) was determined as 3.36. In addition, the Efficacy is on record as 80% with Alternaria solani and 100% with Pyrenophora teres.

`Cn1nc(C(F)F)c(C(=O)NC(C)(C)c2ccccc2Cl)c1Cl` [Example 22] gave a logP in data set [1] (setting [2]) of 3.15. In addition, the Efficacy in the data set on Sphaerotheca fuliginea is recorded as 80%.

Regarding `Cn1nc(C(F)F)c(C(=O)NC(C)(C)c2ccccc2Cl)c1F` [Example 26], in data set [1] (setting [2]), the logP is 2.92. For the same compound, the Efficacy in the data set on Sphaerotheca fuliginea was found to be 88%; with Alternaria solani, 94%.

On to `Cn1nc(C(F)F)c(C(=O)NC(c2ccc(Cl)cc2Cl)C(F)(F)F)c1Cl` (stereo not shown) [Example 32], for which the logP in data set [1] (setting [2]) is 3.89. Also, the Efficacy in the data set on Sphaerotheca fuliginea is 95%.

In data set [1] (setting [2]), `Cn1nc(C(F)F)c(C(=O)NC(C)(C)c2ccc(Cl)cc2Cl)c1Cl` [Example 35] gave a logP of 3.89. The Efficacy in the data set on Sphaerotheca fuliginea turned out to be 86%.

`CON(C(=O)c1c(C(F)F)nn(C)c1Cl)C(C)c1ccc(Cl)cc1Cl` (stereo not shown) [Example 46]: the logP in data set [1] (setting [2]) worked out at 3.81. The Efficacy in the data set with Alternaria solani and in the data set on Pyrenophora teres was 100% in each case.

In the case of `Cn1nc(C(F)F)c(C(=O)NC(C)(C)c2cc(Cl)ccc2Cl)c1Cl` [Example 49], in data set [1] (setting [2]), the logP was found to be 3.89. In the data set with Sphaerotheca fuliginea, this compound gave an Efficacy of 94%.

Compound `Cn1nc(C(F)F)c(C(=O)NC2(c3cc(Cl)ccc3Cl)CC2)c1F` [Example 51] yielded a logP in data set [1] (setting [2]) of 4.19. In addition, the Efficacy in the data set with Alternaria solani is 94%; in the data set on Pyrenophora teres it was 80%.

In turn, `Cn1nc(C(F)F)c(C(=O)NC(C)(C)c2cc(Cl)ccc2Cl)c1F` [Example 52] had a logP in data set [1] (setting [2]) of 3.89. In the data set with Sphaerotheca fuliginea, this compound displayed an Efficacy of 80%.

In data set [1] (setting [2]), `CC(C)c1ccccc1CN(C(=S)c1c(C(F)F)nn(C)c1F)C1CCC1` [Example 75] had a lipophilicity (logP) of 4.63. For the same compound, the Efficacy with Sphaerotheca fuliginea and with Pyrenophora teres was 100% in each case.

`CC(NC(=S)c1c(C(F)F)nn(C)c1Cl)c1ccccc1C(F)(F)F` (stereo not shown) [Example 85] had a logP in data set [1] (setting [2]) of 3.55. Also, the Efficacy in the data set with Alternaria solani is given as 95%; with Pyrenophora teres, 100%.

Turning to `CN(Cc1c(Cl)cccc1C(F)(F)F)C(=O)c1c(C(F)F)nn(C)c1F` [Example 89], the logP in data set [1] (setting [2]) was 2.93. The values for the Efficacy with Alternaria solani and in the data set on Pyrenophora teres were 95% and 100%, respectively.

For the compound `CN(Cc1ccccc1Br)C(=O)c1c(C(F)F)nn(C)c1F` [Example 105], the logP in data set [1] (setting [3]) worked out at 2.71. The values for the Efficacy with Alternaria solani and in the data set on Pyrenophora teres were 95% and 94%, respectively.

In data set [1] (setting [3]), `Cn1nc(C(F)F)c(C(=O)NCc2ccccc2SC(F)(F)F)c1F` [Example 107] registered a logP of 3.11. The Efficacy is on record as 80% with Alternaria solani and 100% in the data set with Pyrenophora teres.

`Cn1nc(C(F)F)c(C(=O)NC2(c3cccc(C(F)(F)F)c3)CCCC2)c1F` [Example 108] came in with a lipophilicity (logP) in data set [1] (setting [3]) of 3.65. Besides, the Efficacy with Sphaerotheca fuliginea was 85%; with Pyrenophora teres, 94%.

`Cn1nc(C(F)F)c(C(=O)NCc2ccc3c(c2)CCCC3)c1F` [Example 110] returned a logP in data set [1] (setting [3]) of 3.25. In addition, the Efficacy in the data set on Alternaria solani was 94%; in the data set with Pyrenophora teres it was 80%.

For `Cn1nc(C(F)F)c(C(=O)NCc2cc(Cl)cc(Cl)c2)c1Cl` [Example 113], the logP in data set [1] (setting [3]) stood at 3.23. The Efficacy in the data set with Alternaria solani was 90%; with Pyrenophora teres it was 80%.

For `Cn1nc(C(F)F)c(C(=O)NCc2cc(Cl)cc(Cl)c2)c1F` [Example 115], the logP in data set [1] (setting [3]) is 3.09. Moreover, the values for the Efficacy in the data set with Alternaria solani and in the data set with Pyrenophora teres were 94% and 90%, respectively.

In the case of `Cn1nc(C(F)F)c(C(=O)NC2(c3ccc(C(F)(F)F)cc3)CCCC2)c1F` [Example 121], the logP in data set [1] (setting [3]) is given as 3.72. For the same compound, the Efficacy is on record as 70% in the data set on Alternaria solani and 94% in the data set with Pyrenophora teres.

In turn, `Cn1nc(C(F)F)c(C(=O)NC2(c3ccc(Cl)c(C(F)(F)F)c3)CC2)c1F` [Example 125] returned a logP in data set [1] (setting [3]) of 3.27. Moreover, the Efficacy is given as 100% with Sphaerotheca fuliginea and 95% with Pyrenophora teres.

Consider `Cn1nc(C(F)F)c(C(=O)N(Cc2cccc(Oc3ccccc3)c2)C2COC2)c1F` [Example 148], for which, in data set [1] (setting [3]), the logP is listed as 3.06. Also, the Efficacy is 80% with Alternaria solani and 95% with Pyrenophora teres.

In the case of `CN(Cc1cccc(Oc2ccccc2)c1)C(=O)c1c(C(F)F)nn(C)c1F` [Example 150], the logP in data set [1] (setting [3]) was determined as 3.31. In addition, the Efficacy is 70% with Alternaria solani and 100% in the data set on Pyrenophora teres.

In turn, `Cn1nc(C(F)F)c(C(=O)NCc2ccc(Oc3ccccc3)cc2)c1F` [Example 152] returned a logP in data set [1] (setting [3]) of 3.23. The Efficacy with Alternaria solani turned out to be 89%; in the data set on Pyrenophora teres, 95%.

`CN(Cc1ccc(Oc2ccccc2)cc1)C(=O)c1c(C(F)F)nn(C)c1F` [Example 156]: in data set [1] (setting [3]), the lipophilicity (logP) was 3.33. Moreover, the results for the Efficacy in the data set with Alternaria solani and with Pyrenophora teres were 89% and 90%, respectively.

Take `CN(Cc1ccc(Oc2ccc(Cl)cc2)cc1)C(=O)c1c(C(F)F)nn(C)c1F` [Example 158]: the logP in data set [1] (setting [3]) was 3.81. Moreover, the Efficacy in the data set on Alternaria solani was 95%; in the data set with Pyrenophora teres it was 100%.

As for `Cn1nc(C(F)F)c(C(=O)NCc2ccc(OCc3ccccc3)cc2)c1F` [Example 161], the logP in data set [1] (setting [3]) is given as 3.23. Besides, the Efficacy with Alternaria solani was determined as 94%; in the data set with Pyrenophora teres it was 90%.

Turning to `Cn1nc(C(F)F)c(C(=O)NCc2cccc(-c3ccccc3)c2)c1F` [Example 166], the log partition coefficient (logP) in data set [1] (setting [3]) was determined as 3.19. For the same compound, the Efficacy worked out at 78% in the data set with Alternaria solani and 80% with Pyrenophora teres.

The compound `Cn1nc(C(F)F)c(C(=O)NCc2ccc(-c3ccccc3)cc2)c1F` [Example 170] had a logP in data set [1] (setting [3]) of 3.21. In addition, the Efficacy is recorded as 94% in the data set with Alternaria solani and 95% in the data set on Pyrenophora teres.
